From patent US20110301087A1, “CRF1 RECEPTOR COMPOUNDS” (priority 2008, published 2011)
Where a SMILES comes first, the peptide text is derived from it. The star is where a group is joined. Palmitoyl = CCCCCCCCCCCCCCCC(=O)*

Molecular target: T1, CRF1 (Homo sapiens, UniProt P34998)
T1 construct: endogenously expresses functional CRF1; endogenous in cells; host or cells: Y-79 human retinoblastoma cells
T1 sequence (P34998 24-415): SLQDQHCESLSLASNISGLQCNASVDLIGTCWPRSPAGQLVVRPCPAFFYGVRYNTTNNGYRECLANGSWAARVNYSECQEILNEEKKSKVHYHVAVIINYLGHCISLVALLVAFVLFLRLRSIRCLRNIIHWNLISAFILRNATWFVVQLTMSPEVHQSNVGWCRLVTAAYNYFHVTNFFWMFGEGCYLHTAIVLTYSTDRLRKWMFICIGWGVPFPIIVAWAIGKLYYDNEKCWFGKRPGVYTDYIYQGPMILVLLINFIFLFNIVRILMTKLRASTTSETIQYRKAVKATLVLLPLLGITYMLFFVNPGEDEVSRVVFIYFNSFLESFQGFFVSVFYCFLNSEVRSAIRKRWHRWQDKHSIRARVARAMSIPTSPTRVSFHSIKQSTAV
Assay: CRF1 assessment of cAMP (HTRF cAMP assay) in Y-79 cells, antagonist mode
Type: cell-based
Details: Y79 cells; for IC50: CRF1 cAMP screening, against agonist; for inhibition at 0.3 µM: 300 nM pepducin against agonist dose response, read-out: % Inhibition (± SD)
From the text: HTRF (homogeneous time resolved fluorescence) is a technology developed by Cisbio Bioassays based on TR-FRET (time-resolved fluorescence resonance energy transfer). Cisbio Bioassays has developed a wide selection of HTRF-based assays compatible with whole cells, thereby enabling functional assays run under more physiological conditions. cAMP kits are based on a competitive immunoassay using cryptate-labeled anti-cAMP antibody and d2-labeled cAMP. This assay allows the measurement of increase in intracellular cAMP upon Gs-coupled receptor activation as well as decrease in forskolin stimulated increase in cAMP upon Gi-coupled receptor activation. Cells expressing CRF1 endogenously or via transfection can be used to assess compound pharmacology using cAMP assays as a means to measure the activity of adenylyl cyclase resulting from CRF1 activation or inhibition.
An example of the use of the cAMP assay can be assessing CRF activation of CRF1 in Y-79, a human retinoblastoma cell line which endogenously expresses functional CRF1. Y-79 cells were seeded into 96-well half area black plates at 30K/well in Hank's balanced salt solution with 50 mM HEPES, 0.1% BSA, 200 uM IBMX. Compounds to be tested for agonist activity were added to cells, incubated for 30 minutes at 37 degrees C. and assayed for cAMP concentration. To test for antagonist activity, compounds to be tested were added to cells, followed by the addition of agonist at an experimentally determined optimal concentration, generally the EC80. Plates were incubated for 30 minutes at 37 degrees C. and assayed for cAMP. To determine concentration of cAMP in each well, d2-labeled cAMP in Conjugate/Lysis buffer was added to wells. This addition lysed the cells and input a known concentration of labeled cAMP. This was followed by the addition of anti-cAMP antibody conjugated to cryptate. FRET occurs when cryptate-labeled antibody binds to d2-labeled cAMP. Therefore, the specific signal is inversely proportional to the concentration of cAMP in the sample. Conversion of signal to concentration of cAMP in the well was accomplished by comparing the FRET signal of sample to a standard curve generated using known concentrations of cAMP.

Row | Structure (SMILES) | IC50 | inhibition at 0.3 µM
1 | CCCCCCCCCCCCCCCC(=O)NCC(=O)N[C@@H](CO)C(=O)N[C@H](C(=O)N[C@@H](CC(=O)O)C(=O)N[C@@H](CCCNC(=N)N)C(=O)N[C@@H](CC(C)C)C(=O)N[C@@H](CCCNC(=N)N)C(=O)N[C@@H](CCCCN)C(=O)N[C@@H](Cc1c[nH]c2ccccc12)C(=O)N[C@@H](CCSC)C(=O)N[C@@H](Cc1ccccc1)C(=O)N[C@@H](C)C(N)=O)[C@@H](C)O [Compound 37] (Palmitoyl-GSTDRLRKWMFA-NH2) | 1000 to 5000 nM | 45 ± 19%
2 | CCCCCCCCCCCCCCCC(=O)N[C@H](C(=O)N[C@@H](CC(=O)O)C(=O)N[C@@H](CCCNC(=N)N)C(=O)N[C@@H](CC(C)C)C(=O)N[C@@H](CCCNC(=N)N)C(=O)N[C@@H](CCCCN)C(=O)N[C@@H](Cc1c[nH]c2ccccc12)C(=O)N[C@@H](CCSC)C(=O)N[C@@H](Cc1ccccc1)C(=O)N[C@@H](C)C(N)=O)[C@@H](C)O [Compound 52] (Palmitoyl-TDRLRKWMFA-NH2) | > 10000 nM | 70%
3 | CCCCCCCCCCCCCCCC(=O)N[C@@H](CCCNC(=N)N)C(=O)N[C@H](C(=O)N[C@@H](CC(C)C)C(=O)N[C@@H](CCSC)C(=O)N[C@H](C(=O)N[C@@H](CCCCN)C(=O)N[C@@H](CC(C)C)C(=O)N[C@@H](CCCNC(=N)N)C(=O)N[C@@H](C)C(=O)N[C@@H](CO)C(=O)N[C@H](C(=O)N[C@H](C(=O)N[C@@H](CO)C(N)=O)[C@@H](C)O)[C@@H](C)O)[C@@H](C)O)[C@@H](C)CC [Compound 58, Pal-RILMTKLRASTTS-amide] (Palmitoyl-RILMTKLRASTTS-NH2) | 501 to 1000 nM | 35%
4 | CCCCCCCCCCCCCCCC(=O)N[C@@H](CCCNC(=N)N)C(=O)N[C@@H](CC(C)C)C(=O)N[C@@H](CCCNC(=N)N)C(=O)N[C@@H](CCCCN)C(=O)N[C@@H](Cc1c[nH]c2ccccc12)C(=O)N[C@@H](CCSC)C(=O)N[C@@H](C)C(=O)N[C@H](C(N)=O)[C@@H](C)CC [Compound 41] (Palmitoyl-RLRKWMAI-NH2) | 501 to 1000 nM | 40%
5 | CCCCCCCCCCCCCCCC(=O)NCC(=O)N[C@@H](CO)C(=O)N[C@H](C(=O)N[C@@H](CCCNC(=N)N)C(=O)N[C@@H](C)C(=O)N[C@@H](CCCNC(=N)N)C(=O)N[C@H](C(=O)N[C@@H](C)C(=O)N[C@@H](CCCNC(=N)N)C(=O)N[C@@H](C)C(=O)N[C@@H](CCSC)C(N)=O)C(C)C)[C@@H](C)CC [Compound 64] (Palmitoyl-GSIRARVARAM-NH2) | 1000 to 5000 nM | 55 ± 13%
6 | CCCCCCCCCCCCCCCC(=O)N[C@H](C(=O)N[C@@H](CC(=O)O)C(=O)N[C@@H](C)C(=O)N[C@@H](CC(C)C)C(=O)N[C@@H](CCCNC(=N)N)C(=O)N[C@@H](CCCCN)C(=O)N[C@@H](Cc1c[nH]c2ccccc12)C(=O)N[C@@H](CCSC)C(=O)N[C@@H](Cc1ccccc1)C(=O)N[C@H](C(N)=O)[C@@H](C)CC)[C@@H](C)O [Compound 46] (Palmitoyl-TDALRKWMFI-NH2) | > 10000 nM | 58%
7 | CCCCCCCCCCCCCCCC(=O)NCC(=O)N[C@@H](CO)C(=O)N[C@H](C(=O)N[C@@H](CC(=O)O)C(=O)N[C@@H](CCCNC(=N)N)C(=O)N[C@@H](CC(C)C)C(=O)N[C@@H](CCCNC(=N)N)C(=O)N[C@@H](CCCCN)C(=O)N[C@@H](C)C(=O)N[C@@H](CCSC)C(=O)N[C@@H](Cc1ccccc1)C(=O)N[C@H](C(N)=O)[C@@H](C)CC)[C@@H](C)O [Compound 40] (Palmitoyl-GSTDRLRKAMFI-NH2) | 501 to 1000 nM | 61 ± 20%
8 | CCCCCCCCCCCCCCCC(=O)N[C@H](C(=O)N[C@@H](CC(=O)O)C(=O)N[C@@H](CCCNC(=N)N)C(=O)N[C@@H](CC(C)C)C(=O)N[C@@H](CCCNC(=N)N)C(=O)N[C@@H](C)C(=O)N[C@@H](Cc1c[nH]c2ccccc12)C(=O)N[C@@H](CCSC)C(=O)N[C@@H](Cc1ccccc1)C(=O)N[C@H](C(N)=O)[C@@H](C)CC)[C@@H](C)O [Compound 49] (Palmitoyl-TDRLRAWMFI-NH2) | > 10000 nM | 42%
9 | CCCCCCCCCCCCCCCC(=O)N[C@H](C(=O)N[C@@H](C)C(=O)N[C@@H](CCCNC(=N)N)C(=O)N[C@@H](CC(C)C)C(=O)N[C@@H](CCCNC(=N)N)C(=O)N[C@@H](CCCCN)C(=O)N[C@@H](Cc1c[nH]c2ccccc12)C(=O)N[C@@H](CCSC)C(=O)N[C@@H](Cc1ccccc1)C(=O)N[C@H](C(N)=O)[C@@H](C)CC)[C@@H](C)O [Compound 45] (Palmitoyl-TARLRKWMFI-NH2) | > 10000 nM | 70%
10 | CCCCCCCCCCCCCCCC(=O)N[C@@H](CCCNC(=N)N)C(=O)N[C@@H](CC(C)C)C(=O)N[C@@H](CCCNC(=N)N)C(=O)N[C@@H](CCCCN)C(=O)N[C@@H](Cc1c[nH]c2ccccc12)C(=O)N[C@@H](CCSC)C(=O)N[C@@H](Cc1ccccc1)C(=O)N[C@H](C(N)=O)[C@@H](C)CC [Compound 30] (Palmitoyl-RLRKWMFI-NH2) | 1000 to 5000 nM | 39 ± 7%
11 | CCCCCCCCCCCCCCCC(=O)N[C@H](C(=O)N[C@@H](CC(=O)O)C(=O)N[C@@H](CCCNC(=N)N)C(=O)N[C@@H](CC(C)C)C(=O)N[C@@H](CCCNC(=N)N)C(=O)N[C@@H](CCCCN)C(=O)N[C@@H](Cc1c[nH]c2ccccc12)C(=O)N[C@@H](C)C(=O)N[C@@H](Cc1ccccc1)C(=O)N[C@H](C(N)=O)[C@@H](C)CC)[C@@H](C)O [Compound 51] (Palmitoyl-TDRLRKWAFI-NH2) | 501 to 1000 nM | 47 ± 7%
12 | CCCCCCCCCCCCCCCC(=O)N[C@H](C(=O)N[C@@H](CC(=O)O)C(=O)N[C@@H](CCCNC(=N)N)C(=O)N[C@@H](CC(C)C)C(=O)N[C@@H](CCCNC(=N)N)C(=O)N[C@@H](CCCCN)C(=O)N[C@@H](Cc1c[nH]c2ccccc12)C(=O)N[C@@H](CCSC)C(=O)N[C@@H](Cc1ccccc1)C(=O)N[C@H](C(N)=O)[C@@H](C)CC)[C@@H](C)O [Compound 32, Pal-TDRLRKWMFI-amide] (Palmitoyl-TDRLRKWMFI-NH2) | 501 to 1000 nM | 53 ± 9%
